From patent US12636366B2, “Ruthenium (II) complexes and conjugates thereof for use as photosensitizer agent in photodynamic therapy” (Paris Sciences et Lettres, priority 2019, dated 2026) come the findings set out here.

Data set [1] relates to CT-26 mouse colon carcinoma cells. Kind of data set: Dark and light cytotoxicity, resazurin cell viability assay, CT-26. It is filed as cell-based. To be noted: for PI (IC50 in the dark/IC50 upon light irradiation): CT-26, 480 nm. How it is done:
(§1) HeLa and CT-26 cell lines were cultured in DMEM media (Gibco, Life Technologies, USA) supplemented with 10% of fetal calf serum (Gibco). U87 and U373 cell lines were cultured in MEM media with addition of 1% of MEM NEAA (non-essential aminoacids) (Gibco) and 10% of fetal calf serum. RPE-1 cells were cultured in DMEM/F-12 (Gibco) supplemented with 10% of fetal calf serum. RPE-1 stable cells lines were cultured as RPE-1 cells with addition of geneticin (0.5 mg/ml) (Gibco). All cell lines were complemented with 100 U/ml penicillin-streptomycin mixture (Gibco), and maintained in humidified atmosphere at 37° C. and 5% of CO2.
(§2) Dark and light cytotoxicity of the Ru(II) complexes was assessed by fluorometric cell viability assay using resazurin (ACROS Organics). For dark and light cytotoxicity, cells were seeded in triplicates in 96 well plates at a density of 4000 cells per well in 100 μl, 24 h prior to treatment. The medium was then replaced with increasing concentration of the tested complexes and cells were incubated for 4 h. Medium was then replaced for fresh complete medium. Cells used for light cytotoxicity experiment were exposed to: 480 nm light for 10 min, 510 nm for 40 min, 540 for 60 min or 595 nm for 120 min in a 96-well plate using a LUMOS-BIO photoreactor (Atlas Photonics). Each well was individually illuminated with a LED at constant current. After irradiation cells were kept for another 44 h in the incubator and the medium was replaced by fresh complete medium containing resazurin (0.2 mg ml^−1 final concentration). After 4 h incubation at 37° C., the fluorescence signal of the resorufin product was read by SpectraMax M5 microplate reader (ex: 540 nm em: 590 nm). IC50 values were calculated using GraphPad Prism software.
(§3) The potential of the complexes to act as PDT PSs was determined on mouse colon carcinoma cells (CT-26), human glioblastoma cells (U87 and U373), human cervical carcinoma cells (HeLa) as well as non-cancerous retina pigmented epithelial cell line (RPE-1) according to the method described above. […] Ideally, a PDT PS should be non-toxic in the dark and highly toxic upon light activation. […] The toxicity of the compounds upon light irradiation (480 nm, 10 min, 3.21 J cm^−2) was then investigated.

Data set [2] has as its system human glioblastoma cells (U87). Kind of data set: Dark and light cytotoxicity, resazurin cell viability assay, U87. The conditions noted are these: for PI (IC50 in the dark/IC50 upon light irradiation): U87, 480 nm. It is filed as cell-based. On the procedure: as §1, §2, §3
A general note: The colour change of resazurin is a common sign of viable cells or microbes.

Data set [3] is described as follows: Singlet oxygen measurement, indirect evaluation (RNO reporter absorbance). It is filed as physicochemical. To be noted: indirect method, excitation at 450 nm, average of three, +-10%. How it is done:
For the measurement in CH3CN: The samples were prepared in an air-saturated CH3CN solution containing the complex with an absorbance of 0.1 at the irradiation wavelength, N,N-dimethyl-4-nitrosoaniline aniline (RNO, 24 μM) and imidazole (12 mM). For the measurement in PBS buffer: The samples were prepared in an air-saturated PBS solution containing the complex with an absorbance of 0.1 at the irradiation wavelength, N,N-dimethyl-4-nitrosoaniline aniline (RNO, 20 μM) and histidine (10 mM). The samples were irradiated on 96 well plates with an Atlas Photonics LUMOS BIO irradiator for different times. The absorbance of the samples was measured during these time intervals with a SpectraMax M2 Microplate Reader (Molecular Devices). The difference in absorbance (A0-A) at 420 nm for the CH3CN solution or at 440 nm a PBS buffer solution was calculated and plotted against the irradiation times. From the plot the slope of the linear regression was calculated as well as the absorbance correction factor determined. The singlet oxygen quantum yields were calculated using the same formulas as used for the direct evaluation.
Additionally, the DFT calculations were able to characterize the lowest energy absorption band as a MLCT transition with a triplet state. With this in hand, a quantitative evaluation of singlet oxygen (^1O2) was performed to assess the potential of the PSs in PDT, by two methods: 1) direct by measurement of the luminescence of ^1O2, 2) indirect by measurement of the variation in absorbance of a reporter molecule, as described above. In the first method, the efficiency of the production of ^1O2 was assessed by measuring its phosphorescence at 1270 nm. Worthy of note, the possibility of detection in this experiment is affected by its environment as well as the used setup. With the setup used in this study, we could only detect Φ(^1O2) larger than 0.20 based on a low peak-to-noise ratio. In the second method (indirect method), ^1O2 is reacting with imidazole (in CH3CN) and histidine (in PBS buffer) to a trans-annular peroxide adduct. This can further quench the absorbance of the reporter molecule p-nitrosodimethyl aniline (RNO), which has been monitored by UV/VIS spectroscopy. In both methods, the ^1O2 production has been compared with a reference molecule, namely a solution of phenalenone in CH3CN (Φ(^1O2)phenaleone=0.95)^33 and a solution of [Ru(bipy)3]Cl2 in water Φ(^1O2)Ru(bipy)3Cl2=0.22)^31. […] In comparison, the values changed drastically in an aqueous solution. […] They have untypically low Φ(^1O2) values in CH3CN (0.22-0.35) for Ru(II) polypyridyl complexes. Subsequently, the ^1O2 production was also quite low in an aqueous environment.

Data set [4] is described as follows: In vivo biodistribution in healthy BALB/c mice (ruthenium by ICP-MS). Also on record: species or system mouse. How it is done:
Twenty four, 8 week old healthy BALB/c female mice were used in this study. 0.015 mg/ml solution of complex 6 was prepared in Milli-Q water and filtrated (0.2 μm cellulose acetate membrane, VWR). For the introduction of solution of complex 6, IV injection was used (300 μl per mouse). Organ samples, including brain, liver, spleen, kidneys and lung, were collected from treated mice after 2 h, 6 h and 24 h post-injection. Each time six mice were sacrificed. Remaining six animals were used as a control.
For these experiments, we have decided to use the chloride salt of the complex 6 to improve its solubility. The time-dependent biodistribution of this compound in different organs was determined in healthy 8-week-old BALB/c mice according to the above-described method. The amount of ruthenium in the tested samples was assessed using Inductive Coupled Plasma Mass-Spectrometry (ICP-MS). […] After 24 h, the amount of ruthenium in the liver decreased. This is a very promising result that could indicate that complex 6 is metabolized by the liver in living organisms.

[5] abbreviates: CT-26, dark, 4 h incubation, read-out: IC50 Dark.
Where [6] appears, read: CT-26, light 480 nm, 10 min, 3.21 J cm^−2, read-out: IC50 Light.
[7] abbreviates: U87, light 480 nm, 10 min, 3.21 J cm^−2, read-out: IC50 Light.

Like-named read-outs stand apart in the source and are kept apart here.

For orientation: IC50 means the concentration that inhibits the measured activity by half. On to “(2,2′-bipyridine-4,4′-carboxamide)bis(1,10-phenanthroline)ruthenium(II) hexafluorophosphate [Compound 4]”, for which, in data set [1] (10 min), the “PI (IC50 in the dark/IC50 upon light irradiation)” value was more than 1. Besides, the IC50 in data set [1] (setting [5]) is more than 100 µM; in data set [1] (setting [6]), 72.6 ± 7.44 µM; in data set [2] (U87, dark, read-out: IC50 Dark), more than 100 µM; in data set [2] (setting [7]), more than 100 µM. Moreover, in data set [3], the “Singlet oxygen quantum yield Φ(1O2), CH3CN Indirect” value was determined as 0.59. Moreover, the “Singlet oxygen quantum yield Φ(1O2), PBS indirect” value in data set [3] came to 0.26.

Regarding “(4,4′-Dimethyl-2,2′-bipyridine)bis(4,7-diphenyl-1,10-phenanthroline)ruthenium(II) hexafluorophosphate [Compound 6]”, the “Levels of Ru in harvested organs (brain, liver, spleen, kidneys, lung)” value in data set [4] (IV injection, 6 h post injection, chloride salt) was “only liver had clearly increased levels of Ru”. Moreover, the “Amount of ruthenium in the liver” value in data set [4] (IV injection, after 24 h, chloride salt) is on record as “decreased”. Besides, the “Behaviour of treated animals” value in data set [4] (IV injection, chloride salt) was “behave normally, without signs of pain, stress or discomfort”. In data set [4] (after 24 h treatment), the “Blood analysis, immune response compared to untreated control” value is recorded as “no sign of immune response”. The “PI (IC50 in the dark/IC50 upon light irradiation)” value in data set [1] (10 min) was 16.3; in data set [2] (10 min), 42.5. The PI is listed as 20.6 in data set [1] (CT-26, 510 nm 40 min); 9.6 in data set [1] (CT-26, 540 nm 60 min); 23.47 in data set [1] (CT-26, 595 nm 2 h). For the same compound, the half-maximal inhibitory concentration (IC50) in data set [1] (CT-26, dark control of the 510 nm 40 min experiment, read-out: IC50 Dark) came to 4.18 ± 0.56 µM; in data set [1] (CT-26, dark control of the 540 nm 60 min experiment, read-out: IC50 Dark), 3.27 ± 0.64 µM; in data set [1] (CT-26, dark control of the 595 nm 2 h experiment, 2 h at 37° C. in non-CO2 atmosphere, read-out: IC50 Dark), 1.408 ± 0.003 µM; in data set [1] (setting [5]) it was 3.09 ± 0.3 µM; in data set [1] (setting [6]), 0.19 ± 0.04 µM; in data set [1] (CT-26, light 540 nm 60 min, read-out: IC50 Light), 0.34 ± 0.005 µM. Besides, the 50% inhibitory concentration (IC50) in data set [1] (CT-26, light 595 nm 2 h, no CO2 atmosphere during irradiation, read-out: IC50 Light) was determined as 0.06 ± 0.004 µM; in data set [2] (U87, dark, read-out: IC50 Dark), 28.4 ± 1.97 µM; in data set [2] (setting [7]), 0.67 ± 0.13 µM. Besides, the “Singlet oxygen quantum yield Φ(1O2), CH3CN Indirect” value in data set [3] is on record as 0.63. In data set [3], the “Singlet oxygen quantum yield Φ(1O2), PBS indirect” value is recorded as 0.03.

As to `Cc1ccnc(-c2cc(C)ccn2)c1.F[P-](F)(F)(F)(F)F.F[P-](F)(F)(F)(F)F.[Ru].c1cnc2c(c1)ccc1cccnc12.c1cnc2c(c1)ccc1cccnc12` [Compound 2, (4,4′-Dimethyl-2,2′-bipyridine)bis(1,10-phenanthroline)ruthenium(II)hexafluorophosphate], the “PI (IC50 in the dark/IC50 upon light irradiation)” value in data set [1] (10 min) and in data set [2] (10 min) was more than 1 each time. For the same compound, the IC50 in data set [1] (setting [5]) was more than 100 µM; in data set [1] (setting [6]) it was 91.2 ± 7.54 µM; in data set [2] (U87, dark, read-out: IC50 Dark), more than 100 µM; in data set [2] (setting [7]) it was 71.4 ± 7.54 µM. For the same compound, in data set [3], the “Singlet oxygen quantum yield Φ(1O2), CH3CN Indirect” value was 0.53. For the same compound, the “Singlet oxygen quantum yield Φ(1O2), PBS indirect” value in data set [3] turned out to be 0.34.

With “((E,E′)-4,4′-Bis(N,N′-dimethylaminovinyl)-2,2′-bipyridine)bis(4,7-diphenyl-1,10-phenanthroline)ruthenium(II) hexafluorophosphate [Compound 7]”, the figures for the “PI (IC50 in the dark/IC50 upon light irradiation)” value in data set [1] (10 min) and in data set [2] (10 min) were 14.3 and more than 12.7, respectively. Besides, the IC50 was 94.5 ± 7.38 µM in data set [1] (setting [5]); 6.62 ± 0.7 µM in data set [1] (setting [6]); more than 100 µM in data set [2] (U87, dark, read-out: IC50 Dark); 7.9 ± 0.54 µM in data set [2] (setting [7]). Moreover, the “Singlet oxygen quantum yield Φ(1O2), CH3CN Indirect” value in data set [3] was 0.35. The “Singlet oxygen quantum yield Φ(1O2), PBS indirect” value in data set [3] is listed as 0.07.

On to “((E,E′)-4,4′-Bis(N,N′-dimethylaminovinyl)-2,2′-bipyridine)bis(1,10-phenanthroline)ruthenium(II) hexafluorophosphate [Compound 5]”, for which the “PI (IC50 in the dark/IC50 upon light irradiation)” value in data set [1] (10 min) was more than 2. For the same compound, the half-inhibitory concentration (IC50) in data set [1] (setting [5]) was more than 100 µM; in data set [1] (setting [6]), 52.5 ± 6.04 µM; in data set [2] (U87, dark, read-out: IC50 Dark) it was more than 100 µM; in data set [2] (setting [7]) it was more than 100 µM. For the same compound, the “Singlet oxygen quantum yield Φ(1O2), CH3CN Indirect” value in data set [3] is recorded as 0.30. The “Singlet oxygen quantum yield Φ(1O2), PBS indirect” value in data set [3] is listed as 0.21.

As to “(4,4′-Dibromo-2,2′-bipyridine)bis(1,10-phenanthroline)ruthenium(II) hexafluorophosphate [Compound 3]”, the “PI (IC50 in the dark/IC50 upon light irradiation)” value in data set [1] (10 min) is more than 1. Also, the IC50 in data set [1] (setting [5]) was more than 100 µM; in data set [1] (setting [6]), 85.7 ± 9.47 µM; in data set [2] (U87, dark, read-out: IC50 Dark) it was more than 100 µM; in data set [2] (setting [7]), more than 100 µM. The “Singlet oxygen quantum yield Φ(1O2), CH3CN Indirect” value in data set [3] was found to be 0.56. Besides, the “Singlet oxygen quantum yield Φ(1O2), PBS indirect” value in data set [3] is given as 0.16.

Take `F[P-](F)(F)(F)(F)F.F[P-](F)(F)(F)(F)F.[Ru+2].c1ccc(-c2ccccn2)nc1.c1cnc2c(c1)ccc1cccnc12.c1cnc2c(c1)ccc1cccnc12` [Compound 1, (Bipyridine)bis(1,10-phenanthroline)ruthenium(II)hexafluorophosphate]: the half-inhibitory concentration (IC50) in data set [1] (setting [5]) was more than 100 µM; in data set [1] (setting [6]) it was more than 100 µM; in data set [2] (U87, dark, read-out: IC50 Dark), more than 100 µM; in data set [2] (setting [7]), 93.7 ± 2.5 µM. In addition, in data set [2] (10 min), the “PI (IC50 in the dark/IC50 upon light irradiation)” value is listed as more than 1. Moreover, the “Singlet oxygen quantum yield Φ(1O2), CH3CN Indirect” value in data set [3] turned out to be 0.54. In addition, in data set [3], the “Singlet oxygen quantum yield Φ(1O2), PBS indirect” value came to 0.46.
